{"source": "ChEMBL document CHEMBL1137214", "about": "“11beta-alkyl-Delta9-19-nortestosterone derivatives: high-affinity ligands and potent partial agonists of the androgen receptor” (J Med Chem, 2004)", "key": {"Glucocorticoid receptor": {"molecular_target": "T1, Glucocorticoid receptor (Homo sapiens, UniProt P04150)", "T1 sequence (P04150 whole entry)": "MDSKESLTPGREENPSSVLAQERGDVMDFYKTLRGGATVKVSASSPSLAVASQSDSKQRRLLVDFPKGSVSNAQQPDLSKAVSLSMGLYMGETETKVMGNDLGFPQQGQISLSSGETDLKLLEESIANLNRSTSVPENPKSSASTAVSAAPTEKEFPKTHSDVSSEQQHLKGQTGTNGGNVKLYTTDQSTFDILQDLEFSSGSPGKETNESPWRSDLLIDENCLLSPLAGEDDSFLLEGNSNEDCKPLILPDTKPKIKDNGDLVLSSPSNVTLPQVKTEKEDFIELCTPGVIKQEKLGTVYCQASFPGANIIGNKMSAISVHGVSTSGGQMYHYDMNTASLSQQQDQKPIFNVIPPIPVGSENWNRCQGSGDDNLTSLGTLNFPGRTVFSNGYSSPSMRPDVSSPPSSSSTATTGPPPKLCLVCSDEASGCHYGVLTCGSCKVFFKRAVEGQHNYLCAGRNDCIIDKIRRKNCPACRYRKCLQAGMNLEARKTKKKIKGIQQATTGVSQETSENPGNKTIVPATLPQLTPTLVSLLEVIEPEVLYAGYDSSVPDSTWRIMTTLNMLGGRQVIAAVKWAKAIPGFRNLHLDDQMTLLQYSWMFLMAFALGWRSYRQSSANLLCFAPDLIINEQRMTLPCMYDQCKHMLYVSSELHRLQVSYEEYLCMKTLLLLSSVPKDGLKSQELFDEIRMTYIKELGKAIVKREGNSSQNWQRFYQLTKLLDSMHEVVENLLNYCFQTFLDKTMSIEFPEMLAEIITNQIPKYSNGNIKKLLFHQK", "test": "Inhibition of CHO-K1 cells expressing glucocorticoid receptor", "assay_type": "cell-based"}, "Androgen receptor [1]": {"molecular_target": "T2, Androgen receptor (Homo sapiens, UniProt P10275)", "T2 sequence (P10275 whole entry)": "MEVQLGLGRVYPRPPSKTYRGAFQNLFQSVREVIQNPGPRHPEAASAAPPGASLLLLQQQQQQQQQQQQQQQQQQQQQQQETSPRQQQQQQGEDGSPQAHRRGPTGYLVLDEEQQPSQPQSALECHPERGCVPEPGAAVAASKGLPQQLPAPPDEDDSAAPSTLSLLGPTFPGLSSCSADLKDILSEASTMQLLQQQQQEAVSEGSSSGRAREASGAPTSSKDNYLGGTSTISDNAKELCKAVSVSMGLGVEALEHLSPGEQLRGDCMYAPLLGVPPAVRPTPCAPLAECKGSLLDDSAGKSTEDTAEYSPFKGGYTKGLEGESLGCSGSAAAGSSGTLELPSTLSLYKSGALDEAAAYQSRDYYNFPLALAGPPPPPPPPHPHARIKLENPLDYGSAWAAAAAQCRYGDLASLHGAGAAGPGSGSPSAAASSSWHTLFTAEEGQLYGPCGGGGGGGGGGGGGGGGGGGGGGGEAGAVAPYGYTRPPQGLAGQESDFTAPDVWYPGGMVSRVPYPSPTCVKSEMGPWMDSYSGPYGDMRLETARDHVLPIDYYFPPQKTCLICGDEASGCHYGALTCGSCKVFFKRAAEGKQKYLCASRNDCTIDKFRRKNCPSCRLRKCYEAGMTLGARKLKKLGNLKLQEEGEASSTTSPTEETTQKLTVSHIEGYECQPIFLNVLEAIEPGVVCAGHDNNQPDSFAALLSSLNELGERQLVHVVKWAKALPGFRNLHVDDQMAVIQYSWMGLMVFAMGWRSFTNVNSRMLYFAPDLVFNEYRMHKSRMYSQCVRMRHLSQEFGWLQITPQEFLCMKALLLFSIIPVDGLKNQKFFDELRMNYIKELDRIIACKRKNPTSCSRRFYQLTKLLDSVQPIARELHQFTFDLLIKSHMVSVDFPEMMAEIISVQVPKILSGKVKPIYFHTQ", "test": "Inhibition of human androgen receptor expressed in Escherichia coli"}, "Androgen receptor [2]": {"molecular_target": "T2, Androgen receptor", "test": "Inhibition of AR-dimerization in CHO-K1 cells expressing human androgen receptor"}}, "note": "pIC50: −log10 of the molar value."}
{"smiles": "CC[C@H]1C[C@@]2(C)C(CC[C@@H]2O)C2CCC3=CC(=O)CCC3=C21", "note": "(stereo partly drawn)", "values": [{"measurement": "pIC50", "setting": "Glucocorticoid receptor", "value": 5.89}, {"measurement": "pIC50", "setting": "Androgen receptor [1]", "value": 8.70}]}
{"smiles": "CCCCC[C@H]1C[C@@]2(C)C(CC[C@@H]2O)C2CCC3=CC(=O)CCC3=C21", "note": "(stereo partly drawn)", "values": [{"measurement": "pIC50", "setting": "Glucocorticoid receptor", "value": 6.90}, {"measurement": "pIC50", "setting": "Androgen receptor [1]", "value": 10.00}, {"measurement": "pIC50", "setting": "Androgen receptor [2]", "value": 11.05}]}
{"smiles": "CCCCCCCCCC[C@H]1C[C@@]2(C)C(CC[C@@H]2O)C2CCC3=CC(=O)CCC3=C21", "note": "(stereo partly drawn)", "values": [{"measurement": "pIC50", "setting": "Glucocorticoid receptor", "value": 5.74}, {"measurement": "pIC50", "setting": "Androgen receptor [1]", "value": 9.10}, {"measurement": "pIC50", "setting": "Androgen receptor [2]", "value": 7.07}]}
{"smiles": "CCCCCCCC[C@H]1C[C@@]2(C)C(CC[C@@H]2O)C2CCC3=CC(=O)CCC3=C21", "note": "(stereo partly drawn)", "values": [{"measurement": "pIC50", "setting": "Glucocorticoid receptor", "value": 6.01}, {"measurement": "pIC50", "setting": "Androgen receptor [1]", "value": 8.18}, {"measurement": "pIC50", "setting": "Androgen receptor [2]", "value": 9.05}]}
{"smiles": "CCCCCCCCCCCC[C@H]1C[C@@]2(C)C(CC[C@@H]2O)C2CCC3=CC(=O)CCC3=C21", "note": "(stereo partly drawn)", "values": [{"measurement": "pIC50", "setting": "Glucocorticoid receptor", "value": 6.06}, {"measurement": "pIC50", "setting": "Androgen receptor [1]", "value": 9.70}]}
